Patent US9770026B2, “Substituted pyrimidine compound and uses thereof” (Shenyang Sinochem Agrochemicals R&D Co., Ltd., priority 2012, dated 2017)

Assays:
rice blast = assay: microbe, parasite or virus in culture; assay type: cell-based; details: Pyricularia oryzae; for inhibition at 8.3 ppm: read-out: inhibition rate against rice blast, 8.3 ppm, in vitro; for inhibition at 25 ppm: read-out: inhibition rate against rice blast, 25 ppm, in vitro
armyworm = assay: bioactivity test against armyworm, airbrush spray; assay type: in vivo
corn rust = assay: protectant activity in vivo against corn rust; details: for pest or weed control at 400 ppm: read-out: protectant activity against corn rust in vivo, 400 ppm
[1] = tested on: Green peach aphids (Myzus Persicae Sulzer); assay: bioactivity test against green peach aphid, airbrush foliar spray; assay type: in vivo; details: death rate after 48 hrs
Summary of the method: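 Death rate was scored at 48 hrs, held at 25±1 C and 60±5% RH, following airbrush foliar spray (0.5 mL, 10 psi) onto cabbage leaf discs bearing about 15-30 aphids. Test solutions: compound dissolved in 1:1 acetone:methanol, brought to concentration with 0.1% tween 80 water.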

carmine spider mite = assay: bioactivity test against carmine spider mite, airbrush spray; assay type: in vivo; details: mortality after 72 hrs
Summary of the method: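 Broadbean seedlings infested with adult mites were sprayed with compound (acetone/methanol stock diluted in 0.1% Tween 80 water) by airbrush at 0.7 kg/cm^2, 0.5 ml. Three replicates were run. Mortality was scored after 72 hrs.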

wheat powdery mildew = assay: protectant activity in vivo against wheat powdery mildew; details: for pest or weed control at 400 ppm: read-out: protectant activity against wheat powdery mildew in vivo, 400 ppm
cucumber downy mildew = assay: protectant activity in vivo against cucumber downy mildew; details: Cucumis sativus, 168 h; for pest or weed control at 400 ppm: read-out: protectant activity against cucumber downy mildew in vivo, 400 ppm
[2] = Myzus persicae, foliar, 48 h, 100 ppm
[3] = Myzus persicae, foliar, 48 h, 600 ppm
[4] = Tetranychus cinnabarinus, 72 h, 600 ppm

`Cc1c(Cl)c(NCCc2ccc(Oc3ccc(C(F)(F)F)cn3)cc2)nc[n+]1CC(=O)c1ccc(Cl)cc1` [CK49, reference compound] was tested, and the inhibition at 8.3 ppm (rice blast) was 0%, the inhibition at 25 ppm (rice blast) was < 50% and the pest or weed control at 600 µg/mL (armyworm; 72 h, 600 mg/L, read-out: Insecticidal activity against armyworm (%)) was 17%. It also gave a pest or weed control at 6.25 µg/mL (corn rust; Zea mays, 168 h, read-out: control effect against corn rust (%), 6.25 mg/L, protectant activity) of 0%, a pest or weed control at 25 µg/mL (corn rust; Zea mays, 168 h, read-out: control effect against corn rust (%), 25 mg/L, protectant activity) of 0% and a pest or weed control at 100 µg/mL (corn rust; Zea mays, 168 h, read-out: control effect against corn rust (%), 100 mg/L, protectant activity) of 30%. It also gave a pest or weed control at 400 µg/mL (corn rust; Zea mays, 168 h, read-out: control effect against corn rust (%), 400 mg/L, protectant activity) of 85%.
In the case of `Cc1ncnc(NCCc2ccc(Oc3ncc(C(F)(F)Cl)cc3Cl)cc2)c1Cl` [Compound I-483], the inhibition at 0.1 ppm (rice blast; read-out: inhibition rate against rice blast, 0.1 ppm, in vitro) is reported as 100%, the inhibition at 0.3 ppm (rice blast; read-out: inhibition rate against rice blast, 0.3 ppm, in vitro) is reported as 100% and the inhibition at 0.9 ppm (rice blast; read-out: inhibition rate against rice blast, 0.9 ppm, in vitro) is reported as 100%. It also gave an inhibition at 2.8 ppm (rice blast; read-out: inhibition rate against rice blast, 2.8 ppm, in vitro) of 100%, an inhibition at 8.3 ppm (rice blast) of 100% and an inhibition at 25 ppm (rice blast) of 100%. It also gave a pest or weed control at 100 ppm [1, 2] of 100%, a pest or weed control at 600 ppm [1, 3] of 100% and a pest or weed control at 100 ppm (carmine spider mite; Tetranychus cinnabarinus, 72 h, 100 ppm) of 80 to 99%. The pest or weed control at 600 ppm (carmine spider mite; [4]) was 100%, the pest or weed control at 400 ppm (corn rust; Zea mays, 168 h) was 100% and the pest or weed control at 100 ppm (wheat powdery mildew; Triticum aestivum, 168 h, read-out: protectant activity against wheat powdery mildew in vivo, 100 ppm) was 80 to 99%. For the same compound, the pest or weed control at 400 ppm (wheat powdery mildew; Triticum aestivum, 168 h) was 80 to 99% and the pest or weed control at 400 ppm (cucumber downy mildew) was 100%.
For `Cc1ncnc(NCCc2ccc(Oc3ccc(C(F)(F)F)cn3)cc2)c1Cl` [Compound I-6763], the inhibition at 25 ppm (rice blast) was 100%, the “control (test results against armyworm)” value (armyworm; 600 ppm, mortality after 72 h) was 100% and the pest or weed control at 100 ppm (armyworm; 72 h, 100 ppm, mortality after 72 h) was 100%. The “control (test results against green peach aphid)” value ([1]; 10 ppm) was 100%, the “control (test results against green peach aphid)” value ([1]; 100 ppm) was 100% and the “control (test results against green peach aphid)” value ([1]; 600 ppm) was 100%. The pest or weed control at 5 ppm ([1]; Myzus persicae, foliar, 48 h, 5 ppm) was 100%, the “control against carmine spider mite” value (carmine spider mite; 100 ppm) was 100% and the “control against carmine spider mite” value (carmine spider mite; 600 ppm) was 100%. The “protectant activity against corn rust in vivo” value (corn rust; 100 ppm) was 100%, the “protectant activity against corn rust in vivo” value (corn rust; 400 ppm) was 100% and the “protectant activity against wheat powdery mildew in vivo” value (wheat powdery mildew; 100 ppm) was 100%. For the same compound, the “protectant activity against wheat powdery mildew in vivo” value (wheat powdery mildew; 400 ppm) was 100%.
For `CCOC(=O)c1ccc(Oc2ccc(CCNc3nc(C)nc(CC)c3Cl)cc2)nc1` [Compound I-6796], the inhibition at 25 ppm (rice blast) was 80 to 99%, the pest or weed control at 10 ppm ([1]; Myzus persicae, foliar, 48 h, 10 ppm) was 100% and the pest or weed control at 100 ppm [1, 2] was 100%. It also gave a pest or weed control at 600 ppm [1, 3] of 100%, a pest or weed control at 600 ppm (carmine spider mite; [4]) of 80 to 99% and a pest or weed control at 6.25 ppm (corn rust; Zea mays, 168 h, read-out: protectant activity against corn rust in vivo, 6.25 ppm) of 80 to 99%. For the same compound, the pest or weed control at 25 ppm (corn rust; Zea mays, 168 h, read-out: protectant activity against corn rust in vivo, 25 ppm) was 80 to 99%, the pest or weed control at 100 ppm (corn rust; Zea mays, 168 h, read-out: protectant activity against corn rust in vivo, 100 ppm) was 100% and the pest or weed control at 400 ppm (corn rust; Zea mays, 168 h) was 100%. The pest or weed control at 400 ppm (wheat powdery mildew; Triticum aestivum, 168 h) was 100%, the pest or weed control at 50 ppm (cucumber downy mildew; read-out: protectant activity against cucumber downy mildew in vivo, 50 ppm) was 80 to 99% and the pest or weed control at 100 ppm (cucumber downy mildew; read-out: protectant activity against cucumber downy mildew in vivo, 100 ppm) was 80 to 99%. It also gave a pest or weed control at 400 ppm (cucumber downy mildew) of 100%.
